Data taken from US20030100515A1, “Benzophenone glycopyranosides, preparation and therapeutic use” (priority 1999, published 2003).
Marks after values point to notes of the source that are not given here.

Tested on: female mice of the C57BL/6J strain
Assay: Lowering of serum cholesterol level in mice subjected to a fatty diet (single oral dose)
Assay type: in vivo
Conditions: total serum cholesterol, female C57BL/6J mice on fatty diet (1.25% cholesterol, 0.5% cholic acid)
Experimental: The antiatheromatous activity of the compounds according to the invention was evaluated as a function of their ability to lower the serum cholesterol level in mice subjected to a fatty diet. […] This correlation affords a test which is more rapid than direct experiments on the atheromatous plaque, which require a lengthy treatment of the animals and an expensive histological study of the walls of the aortic arch.
The test used consists in administering a single dose of the compound to female mice of the C57BL/6J strain. The protocol is as follows: On the first day (D0), the mice are fasted from 9 am to 5 pm, a blood sample being taken at 2 pm. At 5 pm, a given amount of food (a fatty diet comprising 1.25% of cholesterol and 0.5% of cholic acid) is distributed. On the second day (D1), the food leftovers are weighed at 9 am and the mice are fasted from 9 am to 2 pm. A blood sample is taken at 2 pm. For the treated groups of mice, the compound is administered at 9 am on the second day (D1) by tubage in the form of a suspension in a 3% aqueous solution of gum. The control groups receive only the aqueous gum.
[…] The total serum cholesterol is assayed and the results are expressed as the percentage inhibition of the increase in cholesterolemia compared with the control group.

[1] = single dose 100 mg/kg by tubage

With `CC(=O)OC[C@H]1O[C@@H](Oc2ccc(C(=O)c3ccc(C#N)cc3)cc2)[C@@H](OC(C)=O)[C@@H](OC(C)=O)[C@@H]1OC(C)=O` [Example 8, [4-(4-Cyanobenzoyl)phenyl] 2,3,4,6-tetra-O-acetyl-β-D-mannopyranoside] the “Activity (%): percentage inhibition of the increase in cholesterolemia compared with the control group” value [1] was −17%.
In the case of `N#Cc1ccc(C(=O)c2ccc(O[C@@H]3OC[C@H](O)[C@H](O)[C@H]3O)cc2)cc1` [Example 19, [4-(4-Cyanobenzoyl)phenyl] α-L-arabinopyranoside], the “Activity (%): percentage inhibition of the increase in cholesterolemia compared with the control group” value (single dose 10 mg/kg by tubage) is reported as −31* %.
In the case of `CC(=O)O[C@@H]1[C@@H](OC(C)=O)[C@@H](Oc2ccc(C(=O)c3ccc(C#N)cc3)cc2)OC[C@@H]1OC(C)=O` [Example 10, [4-(4-Cyanobenzoyl)phenyl] 2,3,4-tri-O-acetyl-β-L-arabinopyranoside], the “Activity (%): percentage inhibition of the increase in cholesterolemia compared with the control group” value [1] is reported as −22%.
`N#Cc1ccc(C(=O)c2ccc(O[C@H]3OC[C@H](O)[C@H](O)[C@H]3O)cc2)cc1` [Example 11, [4-(4-Cyanobenzoyl)phenyl] β-L-arabinopyranoside] was tested, and the “Activity (%): percentage inhibition of the increase in cholesterolemia compared with the control group” value [1] was −31%.
In the case of `N#Cc1ccc(C(=O)c2ccc(O[C@@H]3OC[C@@H](O)[C@@H](O)[C@H]3O)cc2)cc1` [Example 5, [4-(4-Cyanobenzoyl)phenyl] β-D-ribopyranoside], the “Activity (%): percentage inhibition of the increase in cholesterolemia compared with the control group” value [1] is reported as −36%.
With `N#Cc1ccc(C(=O)c2ccc(O[C@H]3OC[C@H](O)[C@@H](O)[C@@H]3O)cc2)cc1` [Example 13, [4-(4-Cyanobenzoyl)phenyl] β-L-xylopyranoside] the “Activity (%): percentage inhibition of the increase in cholesterolemia compared with the control group” value [1] was −45%.
For `CC(=O)O[C@@H]1[C@@H](OC(C)=O)[C@H](Oc2ccc(C(=O)c3ccc(C#N)cc3)cc2)OC[C@@H]1OC(C)=O` [Example 18, [4-(4-Cyanobenzoyl)phenyl] 2,3,4-tri-O-acetyl-α-L-arabinopyranoside], the “Activity (%): percentage inhibition of the increase in cholesterolemia compared with the control group” value (single dose 10 mg/kg by tubage) was −2* %.
In the case of `N#Cc1ccc(C(=O)c2ccc(O[C@@H]3OC[C@@H](O)[C@H](O)[C@@H]3O)cc2)cc1` [Example 3, [4-(4-Cyanobenzoyl)phenyl] β-D-lyxopyranoside], the “Activity (%): percentage inhibition of the increase in cholesterolemia compared with the control group” value [1] is reported as −28%.
For `CC(=O)O[C@@H]1[C@@H](Oc2ccc(C(=O)c3ccc(C#N)cc3)cc2)OC[C@H](OC(C)=O)[C@H]1OC(C)=O` [Example 12, [4-(4-Cyanobenzoyl)phenyl] 2,3,4-tri-O-acetyl-β-L-xylopyranoside], the “Activity (%): percentage inhibition of the increase in cholesterolemia compared with the control group” value [1] was −45%.
`CC(=O)O[C@@H]1[C@H](Oc2ccc(C(=O)c3ccc(C#N)cc3)cc2)OC[C@@H](OC(C)=O)[C@H]1OC(C)=O` [Example 1, [4-(4-Cyanobenzoyl)phenyl] 2,3,4-tri-O-acetyl-β-D-arabinopyranoside] was tested, and the “Activity (%): percentage inhibition of the increase in cholesterolemia compared with the control group” value [1] was −25%.
With `CC(=O)O[C@@H]1[C@H](Oc2ccc(C(=O)c3ccc(C#N)cc3)cc2)OC[C@H](OC(C)=O)[C@H]1OC(C)=O` [Example 14, [4-(4-Cyanobenzoyl)phenyl] 2,3,4-tri-O-acetyl-α-L-xylopyranoside] the “Activity (%): percentage inhibition of the increase in cholesterolemia compared with the control group” value [1] was −36%.
`CC(=O)O[C@@H]1[C@@H](OC(C)=O)[C@H](C)O[C@H](Oc2ccc(C(=O)c3ccc(C#N)cc3)cc2)[C@@H]1OC(C)=O` [Example 16, [4-(4-Cyanobenzoyl)phenyl] 2,3,4-tri-O-acetyl-β-L-rhamnopyranoside] was tested, and the “Activity (%): percentage inhibition of the increase in cholesterolemia compared with the control group” value [1] was −37%.
In the case of `N#Cc1ccc(C(=O)c2ccc(O[C@@H]3O[C@H](CO)[C@H](O)[C@H](O)[C@H]3O)cc2)cc1` [Example 7, [4-(4-Cyanobenzoyl)phenyl] β-D-galactopyranoside], the “Activity (%): percentage inhibition of the increase in cholesterolemia compared with the control group” value [1] is reported as −32%.
For `N#Cc1ccc(C(=O)c2ccc(O[C@@H]3OC[C@H](O)[C@@H](O)[C@@H]3O)cc2)cc1` [Example 15, [4-(4-Cyanobenzoyl)phenyl] α-L-xylopyranoside], the “Activity (%): percentage inhibition of the increase in cholesterolemia compared with the control group” value [1] was −32%.
For `N#Cc1ccc(C(=O)c2ccc(O[C@@H]3OC[C@@H](O)[C@@H](O)[C@@H]3O)cc2)cc1` [Example 2, [4-(4-Cyanobenzoyl)phenyl] β-D-arabinopyranoside], the “Activity (%): percentage inhibition of the increase in cholesterolemia compared with the control group” value [1] was −29%.
`C[C@@H]1O[C@H](Oc2ccc(C(=O)c3ccc(C#N)cc3)cc2)[C@H](O)[C@H](O)[C@H]1O` [Example 17, [4-(4-Cyanobenzoyl)phenyl] β-L-rhamnopyranoside] was tested, and the “Activity (%): percentage inhibition of the increase in cholesterolemia compared with the control group” value [1] was −50%.
For `N#Cc1ccc(C(=O)c2ccc(O[C@@H]3O[C@H](CO)[C@@H](O)[C@H](O)[C@@H]3O)cc2)cc1` [Example 9, [4-(4-Cyanobenzoyl)phenyl] β-D-mannopyranoside], the “Activity (%): percentage inhibition of the increase in cholesterolemia compared with the control group” value [1] was −39%.
In the case of `CC(=O)OC[C@H]1O[C@@H](Oc2ccc(C(=O)c3ccc(C#N)cc3)cc2)[C@H](OC(C)=O)[C@@H](OC(C)=O)[C@H]1OC(C)=O` [Example 6, [4-(4-Cyanobenzoyl)phenyl] 2,3,4,6-tetra-O-acetyl-β-D-galactopyranoside], the “Activity (%): percentage inhibition of the increase in cholesterolemia compared with the control group” value [1] is reported as −33%.
`CC(=O)O[C@H]1[C@H](Oc2ccc(C(=O)c3ccc(C#N)cc3)cc2)OC[C@@H](OC(C)=O)[C@H]1OC(C)=O` [Example 4, [4-(4-Cyanobenzoyl)phenyl] 2,3,4-tri-O-acetyl-β-D-ribopyranoside] was tested, and the “Activity (%): percentage inhibition of the increase in cholesterolemia compared with the control group” value [1] was −23%.
